Assay results from ChEMBL document CHEMBL2396549, “The discovery of BMS-457, a potent and selective CCR1 antagonist” (Bioorg Med Chem Lett, 2013).

Target: T1, C-C chemokine receptor type 1 (Homo sapiens, UniProt P32246)
T1 sequence (P32246 whole entry): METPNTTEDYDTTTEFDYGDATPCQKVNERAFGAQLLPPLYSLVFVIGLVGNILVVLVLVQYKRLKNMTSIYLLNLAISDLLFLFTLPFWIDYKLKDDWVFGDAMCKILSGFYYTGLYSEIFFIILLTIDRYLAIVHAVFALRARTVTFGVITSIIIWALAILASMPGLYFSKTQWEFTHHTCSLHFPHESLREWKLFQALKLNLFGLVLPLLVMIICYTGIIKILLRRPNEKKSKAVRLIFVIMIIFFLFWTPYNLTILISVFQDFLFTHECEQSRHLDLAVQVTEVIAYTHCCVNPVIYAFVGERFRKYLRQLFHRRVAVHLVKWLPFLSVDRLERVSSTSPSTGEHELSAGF
Assay: Binding affinity to human CCR1

SMILES	IC50 [nM]
CC(C)[C@@H](NC(=O)c1cccc(-c2ccccc2NC(N)=O)c1)C(=O)N1CCC(c2ccc(Cl)cc2)CC1	6.8
CC(C)CC(=O)N[C@@H](C(=O)N1CC[C@](O)(c2ccc(Cl)cc2)C(C)(C)C1)C(C)C	2.9
CC(C)[C@@H](NC(=O)[C@@H]1CC[C@H](N)C1)C(=O)N1CC[C@](O)(c2ccc(Cl)cc2)C(C)(C)C1 (mixture of isomers)	1600
CC(C)[C@@H](NC(=O)Cc1ccncc1)C(=O)N1CCC(c2ccc(Cl)cc2)CC1	9.4
CC(C)[C@@H](NC(=O)c1cccnc1)C(=O)N1CC[C@](O)(c2ccc(Cl)cc2)C2(CC2)C1	7.2
CC(C)[C@@H](NC(=O)c1ccncc1)C(=O)N1CC[C@](O)(c2ccc(Cl)cc2)C(C)(C)C1	7.6
CC(C)[C@@H](NC(=O)c1ccc(Cl)cc1)C(=O)N1CC[C@](O)(c2ccc(Cl)cc2)C(C)(C)C1	3.3
CC(C)[C@@H](NC(=O)C1CCCCC1)C(=O)N1CC[C@](O)(c2ccc(Cl)cc2)C(C)(C)C1	2.2
CC(C)[C@@H](NC(=O)c1cccc(S(N)(=O)=O)c1)C(=O)N1CCC(c2ccc(Cl)cc2)CC1	40
CC(C)[C@@H](NC(=O)CC12CC3CC(CC(C3)C1)C2)C(=O)N1CC[C@](O)(c2ccc(Cl)cc2)C(C)(C)C1	2.6
CC(C)[C@@H](NC(=O)c1ccc(Cl)cc1)C(=O)N1CC[C@@](O)(c2ccc(Cl)cc2)C(C)(C)C1	1800
CC(C)[C@@H](NC(=O)Cc1ccccc1)C(=O)N1CC[C@](O)(c2ccc(Cl)cc2)C(C)(C)C1	4.1
CCC(=O)N[C@@H](C(=O)N1CC[C@](O)(c2ccc(Cl)cc2)C(C)(C)C1)C(C)C	4.5
CC(C)[C@@H](NC(=O)c1cccnc1)C(=O)N1CC[C@](O)(c2ccc(Cl)cc2)C(C)(C)C1	4.3
CC(C)[C@@H](NC(=O)C1CC1)C(=O)N1CC[C@](O)(c2ccc(Cl)cc2)C(C)(C)C1	3
CC(C)[C@@H](NC(=O)[C@@H]1CC[C@@H](N)C1)C(=O)N1CC[C@](O)(c2ccc(Cl)cc2)C(C)(C)C1 (mixture of isomers)	341

Results, then the compound that gave them:

IC50 [nM]	SMILES
25000	CO[C@]1(c2ccc(Cl)cc2)CCN(C(=O)[C@H](NC(=O)c2ccc(Cl)cc2)C(C)C)CC1(C)C
4.6	CC(C)C(=O)N[C@@H](C(=O)N1CC[C@](O)(c2ccc(Cl)cc2)C(C)(C)C1)C(C)C
2.9	CC(C)[C@@H](NC(=O)c1ccc(F)c(O)c1)C(=O)N1CC[C@](O)(c2ccc(Cl)cc2)C(C)(C)C1
20	CC(C)[C@@H](NC(=O)[C@@H]1CCC[C@H]1O)C(=O)N1CC[C@](O)(c2ccc(Cl)cc2)C(C)(C)C1 (mixture of isomers)
> 8330	CN[C@]1(c2ccc(Cl)cc2)CCN(C(=O)[C@H](NC(=O)c2ccc(Cl)cc2)C(C)C)CC1(C)C
233	CC(C)[C@@H](NC(=O)c1ccc(S(N)(=O)=O)cc1)C(=O)N1CC[C@](O)(c2ccc(Cl)cc2)C(C)(C)C1
1.2	CC(C)[C@@H](NC(=O)Cc1ccncc1)C(=O)N1CC[C@](O)(c2ccc(Cl)cc2)C(C)(C)C1
13	CC(=O)N[C@@H](C(=O)N1CC[C@](O)(c2ccc(Cl)cc2)C(C)(C)C1)C(C)C
196	CC(C)[C@@H](NC(=O)c1ccc(Cl)cc1)C(=O)N1CC[C@](N)(c2ccc(Cl)cc2)C(C)(C)C1
1.7	CC(C)[C@@H](NC(=O)CCCc1ccccc1)C(=O)N1CC[C@](O)(c2ccc(Cl)cc2)C(C)(C)C1
194	CC(C)[C@@H](NC(=O)[C@H]1CC[C@@H](N)C1)C(=O)N1CC[C@](O)(c2ccc(Cl)cc2)C(C)(C)C1 (mixture of isomers)
2.3	CC(C)[C@@H](NC(=O)C1CCCC1(O)CCN1CCOCC1)C(=O)N1CC[C@](O)(c2ccc(Cl)cc2)C(C)(C)C1 (stereo partly specified)
15	CC(C)[C@@H](NC(=O)c1ccccn1)C(=O)N1CC[C@](O)(c2ccc(Cl)cc2)C(C)(C)C1
3.4	CC(C)[C@@H](NC(=O)c1cccc(-c2ccccc2NC(N)=O)c1)C(=O)N1CC[C@](O)(c2ccc(Cl)cc2)C(C)(C)C1
1.8	CC(C)[C@@H](NC(=O)C1CCC1)C(=O)N1CC[C@](O)(c2ccc(Cl)cc2)C(C)(C)C1
